ChEMBL document CHEMBL4507263, “Data for DCP probe BAY-474” (2021)

Experiments:
[1] = molecular target: Glycogen synthase kinase-3 alpha (Homo sapiens) (UniProt P49840); test: GSK3alpha (h) Millipore kinase activity assay; conditions: Compound concentration 1.0 uM
[2] = molecular target: Tyrosine-protein kinase ZAP-70 (Homo sapiens) (UniProt P43403); test: ZAP-70 (h) Millipore kinase activity assay; conditions: Compound concentration 1.0 uM
[3] = molecular target: Cyclin-dependent kinase 1/cyclin B (Homo sapiens) (UniProt P06493+P14635+Q8WWL7+O95067); test: CDK1/cyclinB( h) Millipore kinase activity assay; type: protein-complex assay; conditions: Compound concentration 1.0 uM
[4] = molecular target: Eukaryotic elongation factor 2 kinase (Homo sapiens) (UniProt O00418); test: eEF-2K (h) Millipore kinase activity assay; conditions: Compound concentration 1.0 uM
[5] = molecular target: T1, cGMP-dependent protein kinase 1 (Homo sapiens) (UniProt Q13976); test: PKG1beta (h) Millipore kinase activity assay; conditions: Compound concentration 1.0 uM
T1 sequence (whole entry): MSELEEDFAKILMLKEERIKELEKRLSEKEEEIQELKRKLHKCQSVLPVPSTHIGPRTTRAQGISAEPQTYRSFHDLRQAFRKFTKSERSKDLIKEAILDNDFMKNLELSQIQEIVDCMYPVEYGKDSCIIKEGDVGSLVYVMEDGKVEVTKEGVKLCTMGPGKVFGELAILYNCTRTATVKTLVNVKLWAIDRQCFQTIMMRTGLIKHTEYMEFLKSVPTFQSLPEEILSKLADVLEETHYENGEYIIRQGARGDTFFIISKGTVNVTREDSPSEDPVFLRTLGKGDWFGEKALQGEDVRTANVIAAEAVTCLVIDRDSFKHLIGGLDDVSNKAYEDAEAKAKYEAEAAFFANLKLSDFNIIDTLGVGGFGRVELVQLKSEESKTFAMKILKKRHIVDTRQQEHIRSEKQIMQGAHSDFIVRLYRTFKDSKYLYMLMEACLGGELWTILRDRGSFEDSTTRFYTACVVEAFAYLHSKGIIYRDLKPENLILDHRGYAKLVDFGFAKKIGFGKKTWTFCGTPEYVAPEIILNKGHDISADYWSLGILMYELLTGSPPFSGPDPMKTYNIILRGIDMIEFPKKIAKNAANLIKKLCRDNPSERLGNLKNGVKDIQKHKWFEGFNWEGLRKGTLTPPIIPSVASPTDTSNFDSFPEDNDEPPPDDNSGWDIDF

[6] = organism: Mus musculus; test: Inhibition of Interleukin IL-1 at 10 µM in the Eurofins-Panlabs radioligand binding assay (Eurofins_assay_243520); design: ligand concentration 0.1 nM; conditions: Compound concentration 10.0 uM
[7] = molecular target: Platelet-activating factor receptor (Homo sapiens) (UniProt P25105); test: Inhibition of Platelet Activating Factor (PAF) at 10 µM in the Eurofins-Panlabs radioligand binding assay (Eurofins_assay_265010); conditions: Compound concentration 10.0 uM
[8] = molecular target: Homeodomain-interacting protein kinase 1 (Homo sapiens) (UniProt Q86Z02); test: HIPK1 (h) Millipore kinase activity assay; conditions: Compound concentration 1.0 uM
[9] = molecular target: Sodium-dependent serotonin transporter (Homo sapiens) (UniProt P31645); conditions: Compound concentration 10.0 uM
[10] = molecular target: Neuropeptide Y receptor type 2 (Homo sapiens) (UniProt P49146); test: Inhibition of Neuropeptide Y Y2 at 10 µM in the Eurofins-Panlabs radioligand binding assay (Eurofins_assay_257110); conditions: Compound concentration 10.0 uM
[11] = molecular target: Ribosomal protein S6 kinase alpha-4 (Homo sapiens) (UniProt O75676); test: MSK2 (h) Millipore kinase activity assay; conditions: Compound concentration 1.0 uM
[12] = molecular target: Mitogen-activated protein kinase 12 (Homo sapiens) (UniProt P53778); test: SAPK3 (h) Millipore kinase activity assay; conditions: Compound concentration 1.0 uM
[13] = molecular target: Citron Rho-interacting kinase (Homo sapiens) (UniProt O14578); conditions: Compound concentration 1000.0 nM
[14] = molecular target: Platelet-derived growth factor receptor beta (Homo sapiens) (UniProt P09619); conditions: Compound concentration 1000.0 nM
[15] = tested on: Proto-oncogene tyrosine-protein kinase receptor Ret (Homo sapiens), P07949 [M918T]; conditions: Compound concentration 1000.0 nM
[16] = molecular target: Fibroblast growth factor receptor 4 (Homo sapiens) (UniProt P22455); conditions: Compound concentration 1000.0 nM
[17] = molecular target: Casein kinase I isoform alpha-like (Homo sapiens) (UniProt Q8N752); conditions: Compound concentration 1000.0 nM
[18] = molecular target: Serine/threonine-protein kinase NLK (Homo sapiens) (UniProt Q9UBE8); conditions: Compound concentration 1000.0 nM
[19] = molecular target: Ribosomal protein S6 kinase alpha-1 (Homo sapiens) (UniProt Q15418); conditions: Compound concentration 1000.0 nM
[20] = molecular target: Rhodopsin kinase GRK7 (Homo sapiens) (UniProt Q8WTQ7); conditions: Compound concentration 1000.0 nM
[21] = molecular target: Tyrosine-protein kinase JAK1 (Homo sapiens) (UniProt P23458); conditions: Compound concentration 1000.0 nM
[22] = molecular target: Protein-tyrosine kinase 2-beta (Homo sapiens) (UniProt Q14289); conditions: Compound concentration 1000.0 nM
[23] = molecular target: Homeodomain-interacting protein kinase 4 (Homo sapiens) (UniProt Q8NE63); conditions: Compound concentration 1000.0 nM
[24] = molecular target: Phosphatidylinositol 3-kinase catalytic subunit type 3 (Homo sapiens) (UniProt Q8NEB9); conditions: Compound concentration 1000.0 nM
[25] = tested on: Hepatocyte growth factor receptor (Homo sapiens), P08581 [M1250T]; conditions: Compound concentration 1000.0 nM
[26] = molecular target: Tyrosine-protein kinase JAK1 (Homo sapiens) (UniProt P23458); conditions: Compound concentration 1000.0 nM; remark: listed apart in the source
[27] = tested on: Phosphatidylinositol 4,5-bisphosphate 3-kinase catalytic subunit alpha isoform (Homo sapiens), P42336 [E545K]; conditions: Compound concentration 1000.0 nM
[28] = molecular target: Mitogen-activated protein kinase kinase kinase kinase 3 (Homo sapiens) (UniProt Q8IVH8); conditions: Compound concentration 1000.0 nM
[29] = molecular target: Ribosomal protein S6 kinase alpha-4 (Homo sapiens) (UniProt O75676); conditions: Compound concentration 1000.0 nM
[30] = molecular target: 5'-AMP-activated protein kinase catalytic subunit alpha-2 (Homo sapiens) (UniProt P54646); conditions: Compound concentration 1000.0 nM
[31] = molecular target: Serine/threonine-protein kinase ICK (Homo sapiens) (UniProt Q9UPZ9); conditions: Compound concentration 1000.0 nM
[32] = molecular target: TRAF2 and NCK-interacting protein kinase (Homo sapiens) (UniProt Q9UKE5); conditions: Compound concentration 1000.0 nM
[33] = molecular target: Peripheral plasma membrane protein CASK (Homo sapiens) (UniProt O14936); conditions: Compound concentration 1000.0 nM
[34] = molecular target: Serine/threonine-protein kinase PLK3 (Homo sapiens) (UniProt Q9H4B4); conditions: Compound concentration 1000.0 nM
[35] = tested on: Tyrosine-protein kinase ABL1 (Homo sapiens), P00519 [T315I]; conditions: Compound concentration 1000.0 nM

Chain of Ribosomal protein S6 kinase alpha-4 (Homo sapiens) (O75676 whole entry, looked up): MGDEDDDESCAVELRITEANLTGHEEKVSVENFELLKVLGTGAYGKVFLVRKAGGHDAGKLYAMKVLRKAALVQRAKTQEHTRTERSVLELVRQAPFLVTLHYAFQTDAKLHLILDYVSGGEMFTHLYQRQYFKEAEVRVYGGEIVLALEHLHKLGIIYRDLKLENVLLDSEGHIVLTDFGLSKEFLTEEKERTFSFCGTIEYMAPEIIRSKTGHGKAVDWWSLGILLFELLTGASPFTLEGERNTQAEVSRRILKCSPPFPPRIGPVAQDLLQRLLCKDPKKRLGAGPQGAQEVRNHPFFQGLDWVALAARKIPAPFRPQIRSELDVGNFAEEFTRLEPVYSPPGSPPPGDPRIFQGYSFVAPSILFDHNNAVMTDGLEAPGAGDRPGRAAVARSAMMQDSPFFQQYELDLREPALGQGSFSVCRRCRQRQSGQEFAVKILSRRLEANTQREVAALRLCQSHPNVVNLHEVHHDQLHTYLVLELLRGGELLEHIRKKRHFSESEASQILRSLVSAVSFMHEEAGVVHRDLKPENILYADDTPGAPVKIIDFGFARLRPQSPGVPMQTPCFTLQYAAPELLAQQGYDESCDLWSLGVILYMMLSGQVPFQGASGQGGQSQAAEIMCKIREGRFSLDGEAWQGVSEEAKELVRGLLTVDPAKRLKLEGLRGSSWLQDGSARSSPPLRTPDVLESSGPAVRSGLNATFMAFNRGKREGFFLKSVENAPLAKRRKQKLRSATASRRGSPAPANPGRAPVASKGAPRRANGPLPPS
Chain of Tyrosine-protein kinase JAK1 (Homo sapiens) (P23458 whole entry, canonical isoform): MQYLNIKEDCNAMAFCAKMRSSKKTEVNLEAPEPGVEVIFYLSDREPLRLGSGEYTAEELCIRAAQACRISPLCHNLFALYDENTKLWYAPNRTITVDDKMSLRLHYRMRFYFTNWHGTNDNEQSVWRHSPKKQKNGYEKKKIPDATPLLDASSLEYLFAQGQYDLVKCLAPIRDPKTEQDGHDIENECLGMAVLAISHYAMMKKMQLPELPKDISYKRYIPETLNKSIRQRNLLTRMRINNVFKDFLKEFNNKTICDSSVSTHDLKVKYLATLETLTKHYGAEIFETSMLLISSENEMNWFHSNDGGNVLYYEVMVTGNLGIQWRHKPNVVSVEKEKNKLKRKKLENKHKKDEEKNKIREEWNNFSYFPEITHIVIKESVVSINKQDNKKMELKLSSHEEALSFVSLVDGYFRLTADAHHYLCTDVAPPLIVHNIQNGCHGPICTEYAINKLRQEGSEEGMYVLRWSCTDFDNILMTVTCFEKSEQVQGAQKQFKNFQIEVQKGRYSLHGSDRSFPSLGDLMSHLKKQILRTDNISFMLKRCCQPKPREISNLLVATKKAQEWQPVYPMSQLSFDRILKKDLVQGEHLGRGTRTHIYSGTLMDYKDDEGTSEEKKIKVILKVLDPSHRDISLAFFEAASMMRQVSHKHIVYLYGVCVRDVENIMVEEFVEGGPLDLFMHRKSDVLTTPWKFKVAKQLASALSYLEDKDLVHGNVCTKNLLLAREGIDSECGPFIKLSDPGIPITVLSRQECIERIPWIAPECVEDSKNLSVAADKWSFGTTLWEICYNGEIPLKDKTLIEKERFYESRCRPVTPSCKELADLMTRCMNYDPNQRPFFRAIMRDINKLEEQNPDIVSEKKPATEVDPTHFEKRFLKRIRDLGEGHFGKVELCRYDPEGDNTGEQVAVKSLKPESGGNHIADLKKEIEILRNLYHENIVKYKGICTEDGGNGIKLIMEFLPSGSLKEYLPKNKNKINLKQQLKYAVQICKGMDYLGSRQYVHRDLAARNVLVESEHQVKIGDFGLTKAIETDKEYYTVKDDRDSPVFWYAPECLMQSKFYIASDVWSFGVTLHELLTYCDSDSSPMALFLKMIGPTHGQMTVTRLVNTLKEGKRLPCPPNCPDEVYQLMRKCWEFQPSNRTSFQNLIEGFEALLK
Chain of Proto-oncogene tyrosine-protein kinase receptor Ret (Homo sapiens), P07949 [M918T] (P07949 whole entry M918T): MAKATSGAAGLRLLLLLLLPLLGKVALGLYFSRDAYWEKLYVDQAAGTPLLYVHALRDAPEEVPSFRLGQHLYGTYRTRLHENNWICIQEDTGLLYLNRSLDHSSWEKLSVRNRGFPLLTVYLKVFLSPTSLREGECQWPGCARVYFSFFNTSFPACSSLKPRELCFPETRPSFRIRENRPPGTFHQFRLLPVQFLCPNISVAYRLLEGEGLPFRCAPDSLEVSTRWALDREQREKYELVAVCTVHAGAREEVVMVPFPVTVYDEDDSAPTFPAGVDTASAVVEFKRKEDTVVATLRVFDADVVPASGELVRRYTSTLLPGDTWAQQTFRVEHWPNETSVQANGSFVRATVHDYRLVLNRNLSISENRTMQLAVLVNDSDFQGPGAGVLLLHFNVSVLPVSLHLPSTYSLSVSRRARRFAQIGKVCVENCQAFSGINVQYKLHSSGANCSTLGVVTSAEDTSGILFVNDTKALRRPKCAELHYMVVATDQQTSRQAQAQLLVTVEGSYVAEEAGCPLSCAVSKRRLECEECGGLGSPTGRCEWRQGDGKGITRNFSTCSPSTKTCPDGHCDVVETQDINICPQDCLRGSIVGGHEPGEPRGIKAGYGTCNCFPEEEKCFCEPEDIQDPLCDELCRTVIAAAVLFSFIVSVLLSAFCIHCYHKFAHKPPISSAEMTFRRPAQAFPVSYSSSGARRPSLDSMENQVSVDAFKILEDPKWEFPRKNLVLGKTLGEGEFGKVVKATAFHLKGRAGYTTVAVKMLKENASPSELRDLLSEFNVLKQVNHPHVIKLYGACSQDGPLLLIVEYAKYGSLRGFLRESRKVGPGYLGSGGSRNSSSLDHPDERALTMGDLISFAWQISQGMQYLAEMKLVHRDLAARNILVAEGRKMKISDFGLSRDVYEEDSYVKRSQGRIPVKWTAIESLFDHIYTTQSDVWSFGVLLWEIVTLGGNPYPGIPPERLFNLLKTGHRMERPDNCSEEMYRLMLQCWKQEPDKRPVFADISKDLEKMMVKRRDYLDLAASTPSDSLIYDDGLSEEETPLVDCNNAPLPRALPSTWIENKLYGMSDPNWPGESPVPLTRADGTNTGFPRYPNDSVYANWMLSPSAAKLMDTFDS
Chain of Phosphatidylinositol 3-kinase catalytic subunit type 3 (Homo sapiens) (Q8NEB9 whole entry): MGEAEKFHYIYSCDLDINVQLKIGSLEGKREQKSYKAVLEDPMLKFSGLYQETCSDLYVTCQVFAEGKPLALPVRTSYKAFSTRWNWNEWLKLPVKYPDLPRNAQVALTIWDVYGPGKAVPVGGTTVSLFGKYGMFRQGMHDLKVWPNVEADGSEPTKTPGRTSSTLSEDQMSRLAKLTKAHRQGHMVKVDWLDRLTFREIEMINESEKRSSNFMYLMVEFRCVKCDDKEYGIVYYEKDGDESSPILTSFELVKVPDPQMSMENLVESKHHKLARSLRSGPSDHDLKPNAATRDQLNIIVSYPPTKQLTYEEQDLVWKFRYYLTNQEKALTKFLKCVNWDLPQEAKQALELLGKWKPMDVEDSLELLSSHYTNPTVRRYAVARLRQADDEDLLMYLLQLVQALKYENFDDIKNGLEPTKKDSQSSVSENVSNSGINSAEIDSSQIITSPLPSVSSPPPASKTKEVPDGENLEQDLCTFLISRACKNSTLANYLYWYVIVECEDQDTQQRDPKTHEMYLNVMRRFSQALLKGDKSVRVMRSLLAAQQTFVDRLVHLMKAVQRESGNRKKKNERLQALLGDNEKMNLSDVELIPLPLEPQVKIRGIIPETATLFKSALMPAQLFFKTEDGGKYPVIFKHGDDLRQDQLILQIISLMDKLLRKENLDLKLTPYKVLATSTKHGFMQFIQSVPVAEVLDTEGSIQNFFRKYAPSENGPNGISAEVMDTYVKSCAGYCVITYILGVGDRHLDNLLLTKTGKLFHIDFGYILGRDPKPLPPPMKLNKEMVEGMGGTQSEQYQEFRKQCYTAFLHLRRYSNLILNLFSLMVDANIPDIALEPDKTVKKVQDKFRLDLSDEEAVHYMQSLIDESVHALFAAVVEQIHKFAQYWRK
Chain of Protein-tyrosine kinase 2-beta (Homo sapiens) (Q14289 whole entry, looked up): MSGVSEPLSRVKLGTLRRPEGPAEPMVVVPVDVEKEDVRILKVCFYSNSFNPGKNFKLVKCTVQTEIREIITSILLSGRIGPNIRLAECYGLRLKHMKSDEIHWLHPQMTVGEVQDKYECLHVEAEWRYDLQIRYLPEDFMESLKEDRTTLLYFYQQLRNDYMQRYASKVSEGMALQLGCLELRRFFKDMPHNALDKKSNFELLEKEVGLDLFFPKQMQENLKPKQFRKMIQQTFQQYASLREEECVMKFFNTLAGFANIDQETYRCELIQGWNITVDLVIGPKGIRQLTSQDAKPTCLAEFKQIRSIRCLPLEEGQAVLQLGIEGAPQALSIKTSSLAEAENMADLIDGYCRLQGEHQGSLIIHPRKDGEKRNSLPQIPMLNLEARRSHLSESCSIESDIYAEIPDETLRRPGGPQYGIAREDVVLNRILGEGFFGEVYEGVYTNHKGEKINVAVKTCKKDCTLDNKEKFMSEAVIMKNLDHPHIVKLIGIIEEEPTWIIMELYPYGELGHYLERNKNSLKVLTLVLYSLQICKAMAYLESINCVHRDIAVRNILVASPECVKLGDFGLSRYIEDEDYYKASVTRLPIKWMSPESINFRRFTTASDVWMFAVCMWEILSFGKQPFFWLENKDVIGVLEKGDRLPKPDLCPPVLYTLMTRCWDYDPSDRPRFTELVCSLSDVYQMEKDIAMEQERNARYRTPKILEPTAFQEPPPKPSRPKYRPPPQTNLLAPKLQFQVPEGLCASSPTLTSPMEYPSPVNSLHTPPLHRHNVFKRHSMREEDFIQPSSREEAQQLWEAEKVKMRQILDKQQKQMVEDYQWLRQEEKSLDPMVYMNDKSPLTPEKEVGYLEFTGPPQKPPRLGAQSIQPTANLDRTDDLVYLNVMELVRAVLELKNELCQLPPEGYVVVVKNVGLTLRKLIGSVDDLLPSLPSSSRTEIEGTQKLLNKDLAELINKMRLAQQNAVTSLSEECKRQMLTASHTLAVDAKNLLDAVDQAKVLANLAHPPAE

With `CC1=C(C#N)C(c2ccc3[nH]nc(C)c3c2)C(C#N)=C(C)N1` [BAY-474] the inhibition [1] was -3%, the inhibition [2] was 12% and the inhibition [3] was 16%. For the same compound, the inhibition [4] was -5%, the inhibition [5] was 16% and the inhibition [6] was 0%. It also gave an inhibition [7] of 6%, an inhibition [8] of -5% and an inhibition [9] of -3.41%. For the same compound, the inhibition [10] was 3%, the inhibition [11] was -1% and the inhibition [12] was 8%.

For `CC1=C(C#N)[C@@H](c2ccc3[nH]nc(C)c3c2)C(C#N)=C(c2ccc(Cl)cc2)N1` [BAY-827], the residual activity [13] was 100%, the residual activity [14] was 100% and the residual activity [15] was 97.2%. For the same compound, the residual activity [16] was 100%, the residual activity [17] was 100% and the residual activity [18] was 78.9%. The residual activity [19] was 91.2%, the residual activity [20] was 100% and the residual activity [21] was 38.2%. The residual activity [22] was 100%, the residual activity [23] was 88.1% and the residual activity [24] was 100%. For the same compound, the residual activity [25] was 25.1%, the residual activity [26] was 100% and the residual activity [27] was 74.9%. The residual activity [28] was 100%, the residual activity [29] was 100% and the residual activity [30] was 95.3%. The residual activity [31] was 76.2%, the residual activity [32] was 100% and the residual activity [33] was 66.2%. For the same compound, the residual activity [34] was 77.5% and the residual activity [35] was 100%.
